# Experimental data reported in patent US9914730B2, “Azaquinazoline inhibitors of Atypical protein Kinase C” (Ignyta, Inc., priority 2012, dated 2018).
# Molecular target: T1, full-length human PKCι (Homo sapiens, UniProt P41743)
# T1 construct: Recombinant, full-length human PKCι expressed in Sf21 insect cells is also commercially available; purchased; host or cells: Sf21 insect cells
# T1 sequence (P41743 1-596): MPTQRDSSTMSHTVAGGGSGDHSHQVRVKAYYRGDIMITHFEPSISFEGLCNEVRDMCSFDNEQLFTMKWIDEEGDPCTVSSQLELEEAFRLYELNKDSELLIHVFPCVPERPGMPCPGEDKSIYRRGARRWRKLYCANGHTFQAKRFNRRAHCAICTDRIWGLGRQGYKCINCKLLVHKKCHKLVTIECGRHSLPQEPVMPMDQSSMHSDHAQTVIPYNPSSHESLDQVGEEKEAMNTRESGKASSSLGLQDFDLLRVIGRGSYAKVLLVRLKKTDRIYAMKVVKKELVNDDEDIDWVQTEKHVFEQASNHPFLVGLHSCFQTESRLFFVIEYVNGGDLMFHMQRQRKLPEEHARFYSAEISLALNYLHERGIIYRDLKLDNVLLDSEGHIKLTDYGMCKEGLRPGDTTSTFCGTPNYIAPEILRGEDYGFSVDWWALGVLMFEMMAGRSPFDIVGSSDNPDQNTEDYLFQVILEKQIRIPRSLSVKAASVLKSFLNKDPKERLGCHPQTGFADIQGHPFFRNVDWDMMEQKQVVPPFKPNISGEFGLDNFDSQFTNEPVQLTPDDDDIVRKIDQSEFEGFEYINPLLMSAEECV
# Test: PKCι IC50 IMAP assay, full-length PKCι at 150 μM ATP
# Format: biochemical
# Settings: read-out: IC50 in IMAP assay against full length PKCi at 150 μM ATP
# How it was run: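 IMAP fluorescence polarisation (ex 485/em 530 nm) read-out; % inhibition set from no-compound (0%) and no-enzyme (100%) controls, IC50 from dose-response curve fit. Sf21-expressed full-length enzyme ~15 pM, 100 nM FAM peptide, ATP 150 μM (5× KM^APP), 60 min at RT.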
row,SMILES,IC50
1,"COc1cncc2nc(-c3ccnc(Nc4ccc(N5CCNCC5)nc4)c3)nc(N3CCNCC3)c12 [Example 412, [4-(5-Methoxy-4-piperazin-1-yl-pyrido[3,4-d]pyrimidin-2-yl)-pyridin-2-yl]-(6-piperazin-1-ylpyridin-3-yl)-amine]",< 100 nM
2,"COc1cncc2nc(-c3ccnc(Nc4ccc(N5CCN(C)CC5)cc4C)c3)nc(N3CCNCC3)c12 [Example 413, [4-(5-Methoxy-4-piperazin-1-yl-pyrido[3,4-d]pyrimidin-2-yl)-pyridin-2-yl]-[2-methyl-4-(4-methyl-piperazin-1-yl)-phenyl]-amine]",< 100 nM
3,"COc1cncc2nc(-c3ccnc(Nc4cnn(C5CCNCC5)c4)c3)nc(N3CCNCC3)c12 [Example 414, [4-(5-Methoxy-4-piperazin-1-yl-pyrido[3,4-d]pyrimidin-2-yl)-pyridin-2-yl]-(1-piperidin-4-yl-1H-pyrazol-4-yl)-amine]",< 100 nM
4,"COc1cncc2nc(-c3ccnc(Nc4cccc(C)n4)c3)nc(N3CCNCC3)c12 [Example 415, [4-(5-Methoxy-4-piperazin-1-yl-pyrido[3,4-d]pyrimidin-2-yl)-pyridin-2-yl]-(6-methyl-pyridin-2-yl)-amine]",< 100 nM
5,"COc1cncc2nc(-c3ccnc(Nc4cncc(C)c4)c3)nc(N3CCNCC3)c12 [Example 416, [4-(5-Methoxy-4-piperazin-1-yl-pyrido[3,4-d]pyrimidin-2-yl)-pyridin-2-yl]-(5-methyl-pyridin-3-yl)-amine]",< 100 nM
6,"COc1cncc2nc(-c3ccnc(Nc4cncc(Cl)c4)c3)nc(N3CCNCC3)c12 [Example 417, (5-Chloro-pyridin-3-yl)-[4-(5-methoxy-4-piperazin-1-yl-pyrido[3,4-d]pyrimidin-2-yl)-pyridin-2-yl]-amine]",100 to 1000 nM
7,"COc1cncc2nc(-c3ccnc(Nc4ccc(N5CCOCC5)cc4F)c3)nc(N3CCNCC3)c12 [Example 418, (2-Fluoro-4-morpholin-4-yl-phenyl)-[4-(5-methoxy-4-piperazin-1-yl-pyrido[3,4-d]pyrimidin-2-yl)-pyridin-2-yl]-amine]",< 100 nM
8,"COc1cncc2nc(-c3ccnc(Nc4ccc(C#N)cc4F)c3)nc(N3CCNCC3)c12 [Example 419, 3-Fluoro-4-[4-(5-methoxy-4-piperazin-1-yl-pyrido[3,4-d]pyrimidin-2-yl)-pyridin-2-ylamino]-benzonitrile]",100 to 1000 nM
9,"COc1cncc2nc(-c3ccnc(Nc4cc(C#N)ccc4F)c3)nc(N3CCNCC3)c12 [Example 420, 4-Fluoro-3-[4-(5-methoxy-4-piperazin-1-yl-pyrido[3,4-d]pyrimidin-2-yl)-pyridin-2-ylamino]-benzonitrile]",100 to 1000 nM
10,"COc1cncc2nc(-c3ccnc(Nc4c(F)cccc4F)c3)nc(N3CCNCC3)c12 [Example 421, (2,6-Difluoro-phenyl)-[4-(5-methoxy-4-piperazin-1-yl-pyrido[3,4-d]pyrimidin-2-yl)-pyridin-2-yl]-amine]",< 100 nM
11,"COc1cncc2nc(-c3ccnc(Nc4c(C)cccc4F)c3)nc(N3CCNCC3)c12 [Example 422, (2-Fluoro-6-methyl-phenyl)-[4-(5-methoxy-4-piperazin-1-yl-pyrido[3,4-d]pyrimidin-2-yl)-pyridin-2-yl]-amine]",< 100 nM
12,"COc1cncc(Nc2cc(-c3nc(N4CCNCC4)c4c(OC)cncc4n3)ccn2)c1 [Example 424, [4-(5-Methoxy-4-piperazin-1-yl-pyrido[3,4-d]pyrimidin-2-yl)-pyridin-2-yl]-(5-methoxy-pyridin-3-yl)-amine]",< 100 nM
13,"COc1cncc2nc(-c3ccnc(Nc4ccccc4)c3)nc(N3CCC[C@H](O)C3)c12 [Example 425, (S)-1-[5-Methoxy-2-(2-phenylamino-pyridin-4-yl)-pyrido[3,4-d]pyrimidin-4-yl]-piperidin-3-ol]",1000 to 10000 nM
14,"COc1cncc2nc(-c3ccnc(Nc4cc(C#N)ccn4)c3)nc(N3CCC[C@H](O)C3)c12 [Example 426, 2-{4-[4-((S)-3-Hydroxy-piperidin-1-yl)-5-methoxy-pyrido[3,4-d]pyrimidin-2-yl]-pyridin-2-ylamino}-isonicotinonitrile]",1000 to 10000 nM
15,"COc1cncc2nc(-c3ccnc(Nc4ccccc4)c3)nc(N3CCC(O)CC3)c12 [Example 427, 1-[5-Methoxy-2-(2-phenylamino-pyridin-4-yl)-pyrido[3,4-d]pyrimidin-4-yl]-piperidin-4-ol]",1000 to 10000 nM
16,"COc1cncc2nc(-c3ccnc(Nc4ccccc4)c3)nc(N3CCC[C@@H](O)C3)c12 [Example 428, (R)-1-[5-Methoxy-2-(2-phenylamino-pyridin-4-yl)-pyrido[3,4-d]pyrimidin-4-yl]-piperidin-3-ol]",1000 to 10000 nM
17,"COc1cncc2nc(-c3ccnc(Nc4cc(C#N)ccn4)c3)nc(N3CCC[C@@H](O)C3)c12 [Example 429, 2-{4-[4-((R)-3-Hydroxy-piperidin-1-yl)-5-methoxy-pyrido[3,4-d]pyrimidin-2-yl]-pyridin-2-ylamino}-isonicotinonitrile]",1000 to 10000 nM
18,"COc1cncc2nc(-c3ccnc(Nc4ccccc4)c3)nc(NC[C@@H]3CCCN3)c12 [Example 430, [5-Methoxy-2-(2-phenylamino-pyridin-4-yl)-pyrido[3,4-d]pyrimidin-4-yl]-(S)-1-pyrrolidin-2-ylmethyl-amine]",100 to 1000 nM
19,"COc1cncc2nc(-c3ccnc(Nc4ccccc4)c3)nc(NC[C@H]3CCCN3)c12 [Example 431, [5-Methoxy-2-(2-phenylamino-pyridin-4-yl)-pyrido[3,4-d]pyrimidin-4-yl]-(R)-1-pyrrolidin-2-ylmethyl-amine]",100 to 1000 nM
20,"COc1cncc2nc(-c3ccnc(Nc4ccccc4)c3)nc(N3CCN(CCO)CC3)c12 [Example 432, 2-{4-[5-Methoxy-2-(2-phenylamino-pyridin-4-yl)-pyrido[3,4-d]pyrimidin-4-yl]-piperazin-1-yl}-ethanol]",100 to 1000 nM
21,"COc1cncc2nc(-c3ccnc(Nc4ccccc4)c3)nc(N3CC(CO)C3)c12 [Example 433, {1-[5-Methoxy-2-(2-phenylamino-pyridin-4-yl)-pyrido[3,4-d]pyrimidin-4-yl]-azetidin-3-yl}-methanol]",1000 to 10000 nM
22,"COc1cncc2nc(-c3ccnc(Nc4ccccc4)c3)nc(N3CCN[C@@H](CO)C3)c12 [Example 434, {(R)-4-[5-Methoxy-2-(2-phenylamino-pyridin-4-yl)-pyrido[3,4-d]pyrimidin-4-yl]-piperazin-2-yl}-methanol]",< 100 nM
23,"COc1cncc2nc(-c3ccnc(Nc4ccccc4)c3)nc(N3CCN4C(=O)OC[C@H]4C3)c12 [Example 435, (R)-7-[5-Methoxy-2-(2-phenylamino-pyridin-4-yl)-pyrido[3,4-d]pyrimidin-4-yl]-hexahydro-oxazolo[3,4-a]pyrazin-3-one]",100 to 1000 nM
24,"COc1cncc2nc(-c3ccnc(Nc4ccccc4)c3)nc(N3CCNC(=O)C3)c12 [Example 438, 4-[5-Methoxy-2-(2-phenylamino-pyridin-4-yl)-pyrido[3,4-d]pyrimidin-4-yl]-piperazin-2-one]",1000 to 10000 nM
25,"COc1cncc2nc(-c3ccnc(Nc4cccc(F)c4F)c3)nc(N3CCNCC3)c12 [Example 439, (2,3-Difluoro-phenyl)-[4-(5-methoxy-4-piperazin-1-yl-pyrido[3,4-d]pyrimidin-2-yl)-pyridin-2-yl]-amine]",< 100 nM
